Laboratory results reported in article PMC7331731, “Activity of vitamin D receptor agonists against dengue virus” (Scientific Reports, 2020).

Assays:
[1] = tested on: DENV 2; experiment: Level of DENV 2 infection by flow cytometry (HEK293T/17 cells); type: cell-based, dengue virus; details: for level of infection: HEK293T/17, vs 0.01% DMSO control; for level of infection, treatment at 6 and 12 h post-infection: read at 24 h.p.i.
Protocol: (§1) HEK293T/17 cells were cultured on 6-well plates until 70% confluence was reached under standard conditions. The cells were mock-infected or infected with DENV 2 at a multiplicity (MOI) of 5 for 2 h. After infection, the medium was removed and the infected cells were incubated with appropriate concentrations of the VDR agonists until 24 h.p.i., in parallel with DMSO treated control cells. Experiments were performed independently triplicate.
(§2) For time course experiments, under conditions of pre-infection treatment, HEK293T/17 cells were pre-treated with an appropriate concentration of VDR agonists for 1, 3 or 6 h before infection, followed by incubation in complete medium. For treatment post-infection, infected cells were treated with VDR agonists at 0, 1, 3, 6 and 12 h.p.i. The infected cells and supernatant for both pre- and post-treated samples were collected at 24 h.p.i. Experiments were performed independently triplicate.
HEK293T/17 cells were mock-infected or infected with DENV 2 at MOI 5 for 2 h, followed by treatment with the appropriate concentration of VDR agonists. At 24 hpi, the treated cells were harvested and Fc receptors were blocked with 10% goat serum (Gibco BRL, Gaithersburg, MD) for 30 min at 4 °C. The cells were washed with 1% BSA in 1X PBS/IFA (150 mM NaCl, 50 mM NaH2PO4, 50 m M Na2HPO4, pH to 7.4) and centrifuged at 6,000 g for 5 min. Then, the cells were fixed with 4% paraformaldehyde in 1X PBS/IFA at room temperature in the dark for 20 min, followed by the washing. Cell membrane permeabilization was performed using 0.2%Triton-X in 1X PBS/IFA for 10 min in the dark followed by overnight incubation with a 1:150 dilution of a pan-specific mouse monoclonal anti-dengue E protein antibody (HB114[44]). Cells were subsequently incubated for 1 h in the dark with a 1:40 dilution of a fluorescein isothiocyanate (FITC)-conjugated goat anti-mouse IgG antibody (KPL, Guilford, UK) with washing between each step 1% BSA/PBS-IFA. Finally, the cells were analyzed by flow cytometry on a BD FACSCalibur cytometer (Becton Dickinson, BD Biosciences, San Jose, CA) using the CELLQuest software. All experiments were performed independently in triplicate.

[2] = tested on: HEK293T/17 cells
[3] = tested on: DENV 2; experiment: DENV 2 virus titer in supernatant by standard plaque assay (infected HEK293T/17 cells); type: cell-based, dengue virus; details: for EC50: HEK293T/17 cells, DENV 2 MOI 5, post-infection treatment, virus titer at 24 h by plaque assay; for virus titer, treatment at 6 and 12 h post-infection: read at 24 h.p.i.
Protocol: Human embryonic kidney HEK293T/17 (ATCC No. CRL-11268) and human hepatocellular HepG2 (ATCC No. HB-8065) cells were cultured in complete medium, composed of Dulbecco’s modified Eagle medium (DMEM; Gibco BRL) supplemented with 10% heat-inactivated fetal bovine serum (FBS) at 37 °C with 5% CO2. Dengue virus serotype 2 (DENV 2) strain 16681, DENV 1 (strain 16007), DENV 3 (strain 16562), DENV 4 (strain 1036), ZIKV (strain SV0010/15) and JEV (strain BJ1) were all propagated in the Aedes albopictus cell line C6/36 (ATCC No. CRL-1660). Viral progenies in the supernatant were collected and centrifuged at 1,000g to remove cell debris. The virus stocks were kept at − 80 °C until used. Virus titers were determined by standard plaque assay on LLC-MK2 cells (ATCC No. CCL-7).
as §1, §2

[4] = tested on: DENV 3 (strain 16562); experiment: Virus titer by plaque assay, DENV 3; type: cell-based, dengue virus; details: 10 μM, 24 h, HEK293T/17, MOI 10
Protocol: (§3) For viruses other than DENV 2, HEK293T/17 cells were infected with DENV 1 (strain 16007), DENV 3 (strain 16562), DENV 4 (strain 1036) and ZIKV (strain SV0010/15) at MOI 10 and with JEV (strain BJ1) at MOI 1. At 2 h.p.i., the virus was removed and the cells were incubated with 10 μM of VDR agonist (ZD-6) in complete medium for 24 h, after which the supernatant was collected, and the virus titer was determined by standard plaque assay. Experiments were performed independently triplicate.

[5] = tested on: DENV 4 (strain 1036); experiment: Virus titer by plaque assay, DENV 4; type: cell-based, dengue virus; details: 10 μM, 24 h, HEK293T/17, MOI 10
Protocol: as §3

[6] = tested on: ZIKV (strain SV0010/15); experiment: Virus titer by plaque assay, ZIKV; type: cell-based; details: 10 μM, 24 h, HEK293T/17, MOI 10
Protocol: as §3

[7] = tested on: DENV 1 (strain 16007); experiment: Virus titer by plaque assay, DENV 1; type: cell-based, dengue virus; details: 10 μM, 24 h, HEK293T/17, MOI 10
Protocol: as §3

[8] = tested on: JEV (strain BJ1); experiment: Virus titer by plaque assay, JEV; type: cell-based; details: 10 μM, 24 h, HEK293T/17, MOI 1
Protocol: as §3

[9] = tested on: DENV 1, 3, 4, JEV and ZIKV; experiment: Activity against other flaviviruses, plaque assay (all viruses together); type: cell-based; details: 10 μM, 24 h, HEK293T/17, range over DENV 1, 3, 4, JEV, lowest for JEV and ZIKV
Protocol: as §3

[10] = tested on: VDR; experiment: VDR-regulated gene expression by qRT-PCR, VDR; type: cell-based, human; details: 20 µM, 24 h, HEK293T/17, vs actin and 0.02% DMSO
Protocol: (§4) HEK293T/17 cells were incubated with either 10 µM of VDR agonists or 20 μM of commercial VDR agonist EB1089 (Tocris Cookson Ltd., Bristol, UK) for 24 h. Subsequently, the treated cell lysate was collected to determine the mRNA levels of the VDR gene as well as genes regulated by VDR. Total RNA was extracted and cDNA was synthesized as described above. Amplification was performed using specific primers, namely VDR-F: 5′-[…]-3′, VDR-R: 5′-AGTGGCGTCGGTTGTCCTT-3′, CYP27B1-F: 5′-[…]-3′, CYP27B1-R 5′-[…]-3′, CYP24A1-F: 5′-[…]-3′ and CYP24A1-R 5′-[…]-3′. The mRNA expression was normalized against β-actin and DMSO control-treated cells, respectively according to the following equation: ΔΔCt = ΔCt (gene)—ΔCt (DMSO). Experiments were performed independently in triplicate with triplicate real-time PCR.

[11] = tested on: CYP24A1; experiment: VDR-regulated gene expression by qRT-PCR, CYP24A1; type: cell-based, human; details: 20 µM, 24 h, HEK293T/17, vs actin and 0.02% DMSO
Protocol: as §4

[12] = tested on: CYP27B1; experiment: VDR-regulated gene expression by qRT-PCR, CYP27B1; type: cell-based, human; details: 20 µM, 24 h, HEK293T/17, vs actin and 0.02% DMSO
Protocol: as §4

[13] = tested on: DENV infected monocytic U937 cells or hepatic Huh-7 cells; parameters: method as in PMID 22387385; details: U937 or Huh-7 cells; cited from earlier work
[14] = tested on: DENV 2; experiment: Level of DENV 2 infection in HepG2 cells by flow cytometry; type: cell-based, dengue virus; details: 10 μM, 24 h, DENV 2 MOI 5
Protocol: Given that HEK293T/17 cells are not representative of a DENV target tissue, the antiviral activity of the VDR agonists was evaluated in cells representative of a primary target cell. For this reason, HepG2 cells were infected with DENV 2, followed by treatment with 10 μM of the five effective VDR agonists (ZD-1, ZD-2, ZD-3, ZD-5, and ZD-6) for 24 h, after which the level of infection was determined by flow cytometry.
Figure 5 Antiviral activity of VDR agonists against DENV infection on HepG2 cells. HepG2 cells were mock-infected or infected with DENV 2 at MOI 5 for 2 h, followed by the treatment with 10 μM of ZD-1, ZD-2, ZD-3, ZD-5 and ZD-6 for 24 h.p.i. The treated cells were collected and level of infection determined by flow cytometry. p value; *< 0.05, **< 0.01, ***< 0.001 for significance. The experiment was performed independently in triplicate.
HEK293T/17 cells were mock-infected or infected with DENV 2 at MOI 5 for 2 h, followed by treatment with the appropriate concentration of VDR agonists. At 24 hpi, the treated cells were harvested and Fc receptors were blocked with 10% goat serum (Gibco BRL, Gaithersburg, MD) for 30 min at 4 °C. […] Finally, the cells were analyzed by flow cytometry on a BD FACSCalibur cytometer (Becton Dickinson, BD Biosciences, San Jose, CA) using the CELLQuest software. […]

[15] = 10 µM, 24 h, HEK293T/17, plaque assay
[16] = 20 μM, 24 h.p.i., HEK293T/17, plaque assay

SMILES | level of infection ([1]; 10 µM, 24 h) | CC50 [2] | reduction of virus production [3, 15] | EC50 [3] | further results
COc1cc(C2N(c3ccc([N+](=O)[O-])cc3)C(=O)C3CCCN32)ccc1O (stereo not drawn) [ZD-2] | highly significant reductions | 314 µM | 2-3 Log10 | 11.8 µM | –
O=C1C2CCCN2C(c2ccc(O)cc2)N1c1ccc([N+](=O)[O-])cc1 (stereo not drawn) [ZD-6] | highly significant reductions | 277 µM | 2-3 Log10 | 11.3 µM | virus production, DENV 3 [4]: significantly inhibited; virus production, DENV 4 [5]: significantly inhibited; virus production, ZIKV [6]: significantly inhibited; virus production, DENV 1 [7]: significantly inhibited; virus production, JEV [8]: significantly inhibited; magnitude of inhibition of virus production [9]: 1–3 Log10
C=C1/C(=C\C=C2/CCC[C@]3(C)[C@@H]([C@H](C)/C=C/C=C/C(O)(CC)CC)CC[C@@H]23)C[C@@H](O)C[C@@H]1O [EB1089, reference compound] | – | – | – | – | levels of infected cells ([1]; 20 μM, 24 h.p.i., HEK293T/17): significantly reduced; transcriptional level of VDR [10]: significantly up regulated; transcriptional level of CYP24A1 [11]: significantly up regulated; transcriptional level of CYP27B1 [12]: significantly up regulated; reduction of viral production [3, 16]: approximately 2 Log10; viral yield [3, 16]: significantly reduced
CSCCC(NC(=O)OC(C)(C)C)C(=O)Nc1ccc(C2N(c3ccc([N+](=O)[O-])cc3)C(=O)C3CCCN32)cc1 (stereo not drawn) [ZD-4] | – | 520 µM | over 1 Log10 | 33.5 µM | infection levels reduced by ([1]; 10 µM, 24 h, HEK293T/17): approximately 50%
COc1ccc(CC2N(c3ccc([N+](=O)[O-])cc3)C(=O)C3CCCN32)cc1OC (stereo not drawn) [ZD-5] | highly significant reductions | 439 µM | 2-3 Log10 | 8.46 µM | level of infection, treatment at 6 and 12 h post-infection ([1]; 10 µM): significant reductions; virus titer, treatment at 6 and 12 h post-infection ([3]; 10 µM): significant reductions
C=C1/C(=C\C=C2/CCC[C@]3(C)[C@@H]([C@H](C)CCCC(C)(C)O)CC[C@@H]23)C[C@@H](O)C[C@@H]1O [1,25(OH)2D3, 1,25-dihydroxyvitamin D3] | – | – | – | – | numbers of infected cells [13]: decreased numbers of infected cells
CSCCC(NC(=O)OC(C)(C)C)C(=O)Oc1ccc(C2N(c3ccc([N+](=O)[O-])cc3)C(=O)C3CCCN32)cc1 (stereo not drawn) [ZD-20] | no significant reduction | 908 µM | – | 152 µM | effect on DENV 2 titer in the supernatant [3, 15]: no significant effect
O=C1C2CCCN2C(c2ccco2)N1c1ccc([N+](=O)[O-])cc1 (stereo not drawn) [ZD-1] | highly significant reductions | 260 µM | 2-3 Log10 | 8.74 µM | level of infection, treatment at 6 and 12 h post-infection ([1]; 10 µM): significant reductions; level of infection in HepG2 cells [14]: modest; virus titer, treatment at 6 and 12 h post-infection ([3]; 10 µM): significant reductions
CSCCC(N)C(=O)Oc1ccc(C2N(c3ccc([N+](=O)[O-])cc3)C(=O)C3CCCN32)cc1.Cl (stereo not drawn) [ZD-3] | highly significant reductions | 394 µM | – | 7.47 µM | –
